The test system of one test is A2ECs treated with CSE. Briefly: A2ECs exposed to cigarette smoke extract (CSE) in vitro. The conditions noted are these: primary A2ECs + CSE. It is filed as cell-based. Here is the method: A2ECs were treated with PBS, CSP or its fragment, CSP7 or control peptide (CP), 2 h after exposure of cells to CSE. A2EC lysates were immunoblotted for acetylated/total p53 and active/total caspase-3 24 h after CSE exposure. β-actin levels were evaluated to assess equal loading.
To further confirm CSP7 mimics CSP effect, primary A2ECs were treated with cigarette smoke extract (CSE) prepared in PBS in the presence of CSP or CSP7. The A2ECs treated with CSE and CP or PBS alone were used as controls. The A2EC lysates were tested for acetylated and total p53, apoptosis and Sirt1 expression. CSE induced total and acetylated p53 while inhibiting Sirt1 expression in A2ECs indicating inhibition of Sirt1-mediated deacetylation of p53 contributes to induction of acetylated and total p53 and A2EC apoptosis.

Test [1] deals with A2Cs of miR-34a^fl/fl and miR-34a^cKO mice. Briefly: Tobacco smoke exposure of miR-34a fl/fl and miR-34a cKO mice. It is filed as in vivo, mouse. Particulars: for telomere shortening (qPCR): 20 weeks TS; for telomerase enzyme activity: TS. Here is the method: (§1) To analyze the effect of cigarette smoke, mice were exposed to passive smoke from 40 research cigarettes over a 2-hour period once (2 h) or twice (4 h) daily for 5 days/week for 20 weeks (˜90 mg/m^3 total solid particulates) using a mechanical smoking chamber (Teague Enterprises, Davis, CA). Control mice were exposed to ambient air. At the 18th week, peptide treatment at a dosage of 30 μg/20 g body weight was initiated and continued on a daily basis for the next 14 days. At the end of the experiment, the mice were euthanized and used for the experiments.
(§2) To test the effect of chronic TS exposure induced lung injury, these mice were exposed to passive TS from 40 research cigarettes over a 4 h period 5 days/week for 20 weeks (˜90 mg/m3 total solid particulates) using a mechanical smoking chamber (Teague Enterprises, Davis, CA) as described earlier. (Bhandary et al, 2015). Control mice were kept in ambient air. After sixteen weeks of daily passive TS exposure, mice with TS exposure injury were treated with CSP7 at a dosage of 1.5 mg/kg body weight daily 5 days/week for the next four weeks. These mice were continued with daily exposure of 4 h of TS during CSP7 treatment. At the end of the experiment (after 20 weeks of TS exposure), the mice were euthanized, and lungs were utilized for further analyses. To expand the local delivery options of CSP7 to directly treat the damaged lung by air-jet milling for dry powder inhalation (DPI). Mice exposed to TSE were treated with CSP7 using a rotating brush generator for 15 min daily for 7 days. Fourteen days later, BLM mice were subjected to daily inhalation of micronized CSP7 (0.05 mg/kg/d) DP through air-jet-milling for seven consecutive days using a rotating brush exposure system. The rotating brush exposure system gave a consistent minimal chamber concentration of 0.1 mg/L. In order to match dosing of DP inhalation, animal exposure times were adjusted to approximately 15 minutes and an estimated dose of 0.05 mg/kg/d or 1.00 microgram/lung was administered.
Inducible conditional knockout (miR-34a^cKO) mice lacking miR-34a expression in A2ECs were generated by crossing miR-34a^fl/fl mice with SP-C^Cre/mTmG mice (FIG. 62A). RNA from A2ECs of miR-34a^fl/fl or miR-34a^cKO mice treated with tamoxifen were analyzed for miR-34a. […] After 20 weeks, A2ECs were isolated from these mice and analyzed for changes in miR-34a. […] A2ECs from miR-34a^fl/fl and miR-34a^cKo mice were next isolated and tested the lysates for changes in p53 and PAI-1 expression, and apoptosis. PTS induced p53 and PAI-1 expression in A2ECs of miR-34a^fl/fl mice. These changes were associated increased of A2EC apoptosis and senescence. […] These mice also resisted A2ECs apoptosis or senescence (FIG. 62C).

A further test relates to A2Cs of PAI-1^−/− mice. Put plainly: Tobacco smoke or repeated bleomycin exposure of PAI-1-/- mice. It is filed as in vivo, mouse. The conditions noted are these: for IHC TRF1 or TRF2 antigen expression / telomerase enzyme activity (trapeze) / telomere length: PAI-1-/- mice; for IHC TRF1 or TRF2 antigen expression / telomerase enzyme activity (trapeze): TS; for telomere length: smoke or BLM; for p53, Acp53, S15p53, cleaved caspase-3, β-galactosidase, SIAH1/2, PNUTS, TRF1, TRF2, TERT (Western blot): 8X-BLM; for telomere length (qPCR): 20 weeks TS; for p53, Acp53, S15p53, cleaved caspase-3, β-galactosidase in AT2 cells (Western blot): CS 20 weeks. As to the method:
as §1
To analyze the effect of BLM, mice were exposed to BLM (40 μg/20 g body weight) once per two week for 16 weeks. Control mice were exposed to normal saline. At 14th week the peptide treatment at a dosage of 30 μg/20 g body weight was initiated and continued on a daily basis for the next 14 days. At the end of the experiment, the mice were euthanized and used for the experiments.
as §2
To evaluate the effect of CSP7 against chronic BLM-induced PF, the mice were exposed to BLM (40 μg/20 g body weight) once every two weeks for 16 weeks as described elsewhere. (Tiwari et al, 2016). Control mice were exposed to normal saline. Fourteen weeks later the CSP7 at a dosage of 1.5 mg/kg body weight was administered by IP injection and continued daily basis for the next two weeks as described elsewhere. (Tiwari et al, 2016; Shetty et al, 2008b). At the end of the experiment, the mice were euthanized and lung tissues and isolated A2Cs from the extracted lung tissues were used for further analysis.

The subject of the next test is A2Cs of IL-17A^−/− mice. Briefly: Tobacco smoke exposure of IL-17A-/- mice. It is filed as in vivo, mouse. Particulars: 20 weeks TS; for IHC Trf1 or Trf2 antigen staining: IL-17A-deficient mice. Here is the method:
Mouse models and CSP7 treatment. All experiments involving mice were performed according to the approved protocols under the guidelines of Institutional Animal Care and Use Committee. Wild type (WT), and PAI-1^−/− and uPA^−/− mice of C57BL/6 background purchased from Jackson Laboratory (Bar Harbor, ME) were used for the experiments. IL-17A^−/− mice were obtained from University of Tokyo, Japan.
as §2

The test system of test [2] is AT2 cells from COPD lung tissues. Briefly: AT2 cells isolated from COPD lung tissues treated in vitro. It is filed as cell-based, human. As to the method: Ex vivo studies using human lung tissues without patient identity was approved by the Institutional (UTHSCT) Review Board (IRB) through exempt protocol #12-003. nL and COPD tissues (n=4-5) were treated with or without CSP7 for 72 h ex vivo as described previously (Marudamuthu et al, 2019). Total protein and RNA extracted from the lung tissues were analyzed by Western blotting and qPCR for MUC5AC protein and mRNA, respectively. In separate experiments, AT2 cells isolated from nL and COPD lungs were treated with CSP7 or CP and immunoblotted for changes in senescence or apoptosis, p53, PAI-1 and SP-C expression. Similarly, nL and COPD tissues were treated with or without CSP7 or CP for 72 h ex vivo and AT2 cells isolated from these tissues were analyzed for senescence or apoptosis, p53, PAI-1 and SP-C.

The next test concerns AECs from COPD lungs. Briefly: AECs from COPD lungs treated in vitro for 48 h. It is filed as cell-based, human.
Setting [3] is: AT2 cells from COPD tissue, in vitro.

“Also recorded” adds a separate entry of the source.

In the case of “DGIWKASFTTFTVTKYWFYR (listed as Homo sapiens) [CSP, 20 residue caveolin-1 scaffolding domain peptide]”, the CSE-induced apoptosis entry with A2ECs treated with CSE was “inhibited CSE-induced apoptosis”.
With “FTTFTVT (listed as Homo sapiens) [CSP7, heptapeptide fragment of the caveolin-1 scaffolding domain peptide CSP]”, the “miR-34a expression in A2ECs (qRT-PCR)” value in test [1] (WT or miR-34a^fl/fl mice, 20 weeks PTS) is on record as “reduced miR-34a expression”. Further, the “telomere shortening (qPCR)” value in test [1] (WT or miR-34a^fl/fl mice) is given as “protected from telomere shortening; also recorded: significant protection against TS-induced telomere shortening”. The “miR-34a expression in A2ECs” value in test [1] (miR-34a^cKO mice, 20 weeks PTS) is recorded as “minimal effect”. In addition, in test [1] (miR-34a^cKO mice), the “telomere shortening (qPCR)” value was “minimal effect” and the telomerase enzyme activity entry is recorded as “did not upregulate telomerase activity; also recorded: limited effects on baseline telomerase activity”. The “p53, PAI-1, A2EC apoptosis and senescence” value in test [1] (miR-34a^fl/fl mice, PTS) is “inhibited p53, PAI-1 and A2EC apoptosis and senescence”. Besides, the telomerase enzyme activity result in test [1] (miR-34a^fl/fl mice) is given as “significant upregulation; also recorded: reversed”. In addition, in the test on A2Cs of PAI-1^−/− mice, the “IHC TRF1 or TRF2 antigen expression” value is “minimal change in TRF1 or TRF2 antigen expression”, the “telomerase enzyme activity (trapeze)” value was “no significant change activity” and the telomere length entry is reported as “no significant change in telomere length”. Moreover, in the test on A2Cs of PAI-1^−/− mice (PAI-1-deficient mice), the “p53, Acp53, S15p53, cleaved caspase-3, β-galactosidase, SIAH1/2, PNUTS, TRF1, TRF2, TERT (Western blot)” value is listed as “little or no difference”; the “telomere length (qPCR)” value is reported as “minimal effect on telomere length”; the “p53, Acp53, S15p53, cleaved caspase-3, β-galactosidase in AT2 cells (Western blot)” value was “little or no difference”. Besides, the “expression of p53 in A2Cs” value in the test on A2Cs of PAI-1^−/− mice (PAI-1-deficient mice, TS or BLM) was “minimal effect”. Also, in the test with A2Cs of IL-17A^−/− mice (IL-17A-/- mice), the baseline telomerase activity entry is “limited effects on baseline telomerase activity” and the “telomere shortening in A2Cs” value is listed as “minimal effect”. The “IHC Trf1 or Trf2 antigen staining” value in the test on A2Cs of IL-17A^−/− mice is reported as “little change in Trf1 or Trf2 antigen staining”. Further, in test [2] (setting [3]), the SP-C level entry is on record as “restored baseline SP-C level”; the p53 and apoptosis result was “marked suppression of p53 and apoptosis”. Moreover, the “response of AT2 cells from nL tissues” value in test [2] (subjects without COPD) is “failed to respond to CSP7 treatment”. Further, in the test with A2ECs treated with CSE, the CSE-induced apoptosis result is “inhibited CSE-induced apoptosis”. Also, in the test with AECs from COPD lungs, the “CIP2A mRNA” value is recorded as “significant suppression of CIP2A mRNA”; the “MUC5AC, HDAC6, FOXA3, CAV1 and FOXA2 mRNA (qPCR)” value is “reversed by CSP7 treatment; also recorded: significantly suppressed”; the “co-localization of MUC5AC/HDAC6 and Ac-Tub/LC3 (immunofluorescence)” value is reported as “co-localization was reversed”; the “number of ciliated AECs and cilia length” value is recorded as “restored”. In the test on AECs from COPD lungs (6 h), the “acridine orange staining of acidic vesicles (late autophagic vacuoles)” value is reported as “reversed by CSP7; also recorded: marked reduction in red fluorescence”. In the test on AECs from COPD lungs (48 h), the “Cav1 mRNA (qPCR)” value was “reversed”.
Take “WGIDKAFFTTSTVTYKWFRY [CP, scrambled control peptide with the same amino acid composition as CSP, reference compound]”: the telomerase enzyme activity result in test [1] (miR-34a^fl/fl mice) is “little effect”. In addition, in the test on A2Cs of PAI-1^−/− mice, the “IHC TRF1 or TRF2 antigen expression” value is listed as “minimal change in TRF1 or TRF2 antigen expression”, the “telomerase enzyme activity (trapeze)” value was “no significant change activity” and the telomere length result is recorded as “no significant change in telomere length”. Moreover, in the test with A2Cs of PAI-1^−/− mice (PAI-1-deficient mice), the “p53, Acp53, S15p53, cleaved caspase-3, β-galactosidase, SIAH1/2, PNUTS, TRF1, TRF2, TERT (Western blot)” value was “little or no difference”; the “telomere length (qPCR)” value was “minimal effect on telomere length”; the “p53, Acp53, S15p53, cleaved caspase-3, β-galactosidase in AT2 cells (Western blot)” value is “little or no difference”. In addition, the “telomere shortening in A2Cs” value in the test on A2Cs of IL-17A^−/− mice (IL-17A-/- mice) is given as “minimal effect”. Further, the “IHC Trf1 or Trf2 antigen staining” value in the test with A2Cs of IL-17A^−/− mice is recorded as “little change in Trf1 or Trf2 antigen staining”. The p53 and apoptosis entry in test [2] (setting [3]) was “remained elevated”. The “MUC5AC, HDAC6, FOXA3, CAV1 and FOXA2 mRNA (qPCR)” value in the test on AECs from COPD lungs was “continued to exhibit elevated levels of MUC5AC, HDAC6, FOXA3, and CAV1 mRNA with low FOXA2 mRNA”.

The values above are taken from patent publication US20240082342A1, “PEPTIDE THERAPEUTICS FOR INCREASING LUNG CELL VIABILITY” (BOARD OF REGENTS, THE UNIVERSITY OF TEXAS SYSTEM, priority 2018, published 2024).
